In test [1] the test system is MV4-11. As to the kind of experiment: Secondary dose-response HTS, Cell Titer Glo. The note with it: Homo sapiens, MV4-11. It counts as cell-based, human. For orientation: In ATP-based viability assays light output follows the ATP content of the culture.
The test system of test [2] is MLLr primary AML blast samples. The test is described as follows: Ex vivo drug treatment of primary AML blasts on mesenchymal stromal cells. The note with it: Homo sapiens; primary blasts on MSC, 96 h, range over patient samples. It counts as cell-based.
The subject of test [3] is CMK. As to the kind of experiment: Secondary dose-response HTS, Cell Titer Glo. Type of test: cell-based, human. The note with it: Homo sapiens, CMK.
In test [4] the test system is CMS. The test is described as follows: Secondary dose-response HTS, Cell Titer Glo. Type of test: cell-based, human. The note with it: Homo sapiens.
For test [5], the system named is MOLM-13. As to the kind of experiment: Secondary dose-response HTS, Cell Titer Glo. It counts as cell-based, human. The note with it: Homo sapiens, MOLM-13.
Test [6] relates to U937. The test is described as follows: Secondary dose-response HTS, Cell Titer Glo. The note with it: Homo sapiens, U-937. It counts as cell-based, human.
In test [7] the test system is CMK. The test is described as follows: cells. The note with it: Homo sapiens, 72 h, read-out: CMK. On the set-up: species or system AML cell lines (8).
For test [8], the system named is ML-2. As to the kind of experiment: cells. The note with it: Homo sapiens, ML-2, 72 h, read-out: ML-2. The arrangement: species or system AML cell lines (8).
The test system of test [9] is CHRF288-11. The test is described as follows: cells. The note with it: 72 h, read-out: CHRF288-11. The arrangement: species or system AML cell lines (8).
Test [10] has as its system M07e. As to the kind of experiment: Secondary dose-response HTS, Cell Titer Glo. Type of test: cell-based, human. The note with it: Homo sapiens, M-07e.
The subject of test [11] is MV4-11. As to the kind of experiment: cells. The arrangement: species or system AML cell lines (8). The note with it: Homo sapiens, MV4-11, 72 h, read-out: MV4-11.
For test [12], the system named is MOLM-13. The test is described as follows: cells. On the set-up: species or system AML cell lines (8); Secondary HTS, 10-point dose-response in triplicate, Cell Titer Glo viability, four-parameter fit EC50. The note with it: Homo sapiens; 72 h cell viability; read-out: MOLM-13.
The subject of test [13] is CMS. As to the kind of experiment: cells. The arrangement: species or system AML cell lines (8). The note with it: 72 h, read-out: CMS.
The subject of test [14] is U937. The test is described as follows: cells. The arrangement: species or system AML cell lines (8). The note with it: Homo sapiens, U-937, 72 h, read-out: U937.
Test [15] relates to ML2. The test is described as follows: Secondary dose-response HTS, Cell Titer Glo. Type of test: cell-based, human. The note with it: ML-2; for EC50: Homo sapiens.
Test [16] has as its system CHRF288-11. As to the kind of experiment: Secondary dose-response HTS, Cell Titer Glo. The note with it: Homo sapiens. It counts as cell-based, human.
Test [17] deals with M07e. As to the kind of experiment: cells. The arrangement: species or system AML cell lines (8). The note with it: M-07e, 72 h, read-out: M07e.
Test [18] relates to AMKL primary AML blast samples. The test is described as follows: Ex vivo drug treatment of primary AML blasts on mesenchymal stromal cells. It counts as cell-based. The note with it: Homo sapiens; primary blasts on MSC, 96 h.
The mark [19] stands for this setting: secondary high-throughput screen, read-out: average effective concentration, MV4-11.
The mark [20] stands for this setting: secondary high-throughput screen, read-out: average effective concentration, CMK.
The mark [21] stands for this setting: HTS, secondary high-throughput screen, CMS, read-out: average effective concentration, CMS.
The mark [22] stands for this setting: secondary high-throughput screen, read-out: average effective concentration, MOLM-13.
The mark [23] stands for this setting: secondary high-throughput screen, U937, read-out: average effective concentration, U937.
Where [24] appears, read: secondary high-throughput screen, M07e, read-out: average effective concentration, M07e.
Where [25] appears, read: secondary high-throughput screen, read-out: average effective concentration, ML-2.
[26] abbreviates: HTS, secondary high-throughput screen, CHRF288-11, read-out: average effective concentration, CHRF288-11.
The mark [27] stands for this setting: secondary HTS, 72 h, average of triplicate, read-out: EC50 MV4-11.
The mark [28] stands for this setting: secondary HTS, 72 h, average of triplicate, read-out: EC50 ML2.
The mark [29] stands for this setting: secondary HTS, 72 h, average of triplicate, read-out: EC50 MOLM-13.
Setting [30] is: secondary HTS, 72 h, average of triplicate, read-out: EC50 CHRF288-11.
Where [31] appears, read: secondary HTS, 72 h, average of triplicate, read-out: EC50 U937.
[32] abbreviates: secondary HTS, 72 h, average of triplicate, read-out: EC50 M07e.

Where two headings read alike, the source gives them in different places.

In general, IC50 refers to the midpoint of a concentration-inhibition curve. For `C=CC(=O)N1CCC[C@@H](n2nc(-c3ccc(Oc4ccccc4)cc3)c3c(N)ncnc32)C1` [Ibrutinib, reference compound], the EC50 in test [1] (setting [19]) was 10 µM; in test [3] (setting [20]), > 10 µM; in test [4] (setting [21]), > 10 µM; in [5] (setting [22]), 6.7 µM; in test [6] (setting [23]), 10 µM. Besides, the IC50 in test [2] was > 20 µM.

Take `NC(=O)c1ncn([C@@H]2O[C@H](CO)[C@@H](O)[C@H]2O)n1` [RIBAVIRIN]: the EC50 in [7] was > 10 µM; in test [8] it was > 10 µM; in test [9], > 10 µM; in test [10] (setting [24]) it was 9.3 µM; in test [11] it was > 10 µM; in test [12] it was > 10 µM. Also, the EC50 in test [13] and in test [14] was > 10 µM each time.

In the case of `NC(=O)c1cccc(N)c1` [Compound 3-AMINOBENZAMIDE], the EC50 in [15] (setting [25]) was 3.2 µM; in test [7], > 10 µM; in [5] (setting [22]), 3.2 µM; in [16] (setting [26]), 3 µM; in test [17], > 10 µM; in test [11], > 10 µM. Besides, the EC50 in test [13] and in test [14] was > 10 µM throughout.

As to `Cc1oncc1C(=O)Nc1ccc(C(F)(F)F)cc1` [LEFLUNOMIDE], the EC50 in test [7], in test [8], in test [9], in test [17], in [11] and in [12] was > 10 µM throughout. In addition, the EC50 in test [13] and in test [14] was > 10 µM in each case.

Regarding `O=C(O)CCCc1ccc(N(CCCl)CCCl)cc1` [CHLORAMBUCIL], the EC50 in test [1] (setting [19]) was 8.4 µM; in test [8] it was > 10 µM; in [3] (setting [20]) it was 5.9 µM; in test [4] (setting [21]) it was 7 µM; in [5] (setting [22]) it was 10 µM; in test [16] (setting [26]), 4.9 µM. Also, the EC50 was 6.1 µM in [6] (setting [23]) and 6.9 µM in [10] (secondary high-throughput screen, […], read-out: average effective concentration, M07e). Further, in [15] (secondary high-throughput screen), the “average effective concentration, ML-2” value is given as “Inactive”.

On to `CO[C@H]1C[C@@H]2CC[C@@H](C)[C@@](O)(O2)C(=O)C(=O)N2CCCC[C@H]2C(=O)O[C@H]([C@H](C)C[C@@H]2CC[C@@H](OCCO)[C@H](OC)C2)CC(=O)[C@H](C)/C=C(\C)[C@@H](O)[C@@H](OC)C(=O)[C@H](C)C[C@H](C)/C=C/C=C/C=C/1C` [EVEROLIMUS], for which the EC50 in [7], in [8], in [9], in test [17], in [11] and in test [12] was > 10 µM in each case. Also, the EC50 in test [13] and in [14] was > 10 µM each time.

Turning to `C[C@@H]1C[C@H]2O[C@@H]2/C=C\C=C\C(=O)Cc2c(Cl)c(O)cc(O)c2C(=O)O1` [RADICICOL], the EC50 in test [1] (setting [19]) stood at 0.021 µM; in test [15] (setting [25]), 0.061 µM; in test [3] (setting [20]) it was 0.066 µM; in [4] (setting [21]) it was 0.11 µM; in [5] (setting [22]), 0.027 µM; in test [16] (setting [26]), 0.092 µM. For the same compound, the EC50 was > 10 µM in test [17] and 0.015 µM in test [6] (setting [23]).

With `CC(C)C[C@H](NC(=O)[C@H](Cc1ccccc1)NC(=O)c1cnccn1)B(O)O` [Bortezomib, reference compound], the EC50 in [1] (setting [27]) turned out to be 0.002 µM; in test [1] (setting [19]) it was 0.0023 µM; in test [15] (setting [28]) it was 0.001 µM; in test [15] (setting [25]), 0.0012 µM; in test [3] (secondary HTS, 72 h, average of triplicate, read-out: EC50 CMK), 0.01 µM; in [3] (setting [20]), 0.0076 µM. For the same compound, the EC50 in test [4] (secondary HTS, 72 h, average of triplicate, read-out: EC50 CMS) stood at 0.001 µM; in test [5] (setting [29]), 0.002 µM; in test [5] (setting [22]) it was 0.0017 µM; in [16] (setting [30]), 0.002 µM; in test [6] (setting [31]), 0.02 µM; in [6] (setting [23]), 0.021 µM. Further, the figures for the EC50 in test [10] (setting [32]) and in [10] (setting [24]) were 0.001 µM and 0.0015 µM, respectively. The IC50 was 0.0016 to 0.005 µM in [2] and 0.02 µM in test [18].

For `CCc1ccc(CCOc2ccc(CC3SC(=O)NC3=O)cc2)nc1` (centres unmarked) [PIOGLITAZONE], the EC50 in [7], in test [8], in test [9], in [17], in [11] and in [12] was > 10 µM throughout. Besides, the EC50 in [13] and in test [14] was > 10 µM throughout.

As for `CC[C@H](NC(=O)[C@H](C)NC)C(=O)N1C[C@@H](O)C[C@H]1Cc1c(-c2[nH]c3cc(F)ccc3c2C[C@@H]2C[C@H](O)CN2C(=O)[C@H](CC)NC(=O)[C@H](C)NC)[nH]c2cc(F)ccc12` [BIRINAPANT], the EC50 is 0.001 µM in test [15] (setting [25]); > 10 µM in test [7]; > 10 µM in test [9]; > 10 µM in test [17]; > 10 µM in [11]; > 10 µM in test [12]. In addition, the EC50 in test [13] and in test [14] was > 10 µM throughout.

For the compound `CC(C)[C@]12O[C@H]1[C@@H]1O[C@]13[C@]1(O[C@H]1C[C@H]1C4=C(CC[C@@]13C)C(=O)OC4)[C@@H]2O` [TRIPTOLIDE], the EC50 in [1] (setting [19]) is 0.23 µM; in test [15] (setting [25]) it was 0.061 µM; in test [3] (setting [20]), 0.01 µM; in [4] (setting [21]), 0.07 µM; in [5] (setting [22]), 0.12 µM; in [9], > 10 µM. The EC50 turned out to be 0.1 µM in [6] (setting [23]) and 0.01 µM in test [10] (setting [24]).

For `Cc1[nH]c2ccccc2c1CCNCc1ccc(/C=C/C(=O)NO)cc1` [Panobinostat, reference compound], the EC50 was found to be 0.13 µM in test [1] (setting [27]); 0.01 µM in test [15] (setting [28]); 0.012 µM in test [15] (setting [25]); 0.003 µM in [3] (72 h, read-out: EC50 CMK); 0.00285 µM in test [3] (read-out: average effective concentration, CMK); 0.03 µM in test [4] (HTS, 72 h, read-out: EC50 CMS). In addition, the EC50 in [4] (HTS, read-out: average effective concentration, CMS) was determined as 0.028 µM; in [5] (setting [29]), 0.18 µM; in test [16] (setting [30]), 0.01 µM; in test [6] (setting [31]), 0.01 µM; in [10] (setting [32]), 0.005 µM; in test [10] (setting [24]), 0.00464 µM. For the same compound, the IC50 is 0.0009 to 0.0033 µM in test [2] and 0.014 µM in test [18].

In the case of `O=P1(NCCCl)OCCCN1CCCl` (centres unmarked) [IFOSFAMIDE], the EC50 in test [7], in [8], in test [9], in test [17], in [11] and in [12] was > 10 µM each time. For the same compound, the EC50 in test [13] and in [14] was > 10 µM each time.

With `Cc1c(CN2CCN(C(=O)[C@H](C)O)CC2)sc2c(N3CCOCC3)nc(-c3cnc(N)nc3)nc12` [GDC-0980], the EC50 in test [8] was > 10 µM; in test [3] (setting [20]), 0.52 µM; in [9] it was > 10 µM; in [17] it was > 10 µM; in test [11] it was > 10 µM; in [12], > 10 µM. For the same compound, the EC50 in test [13] and in test [14] was > 10 µM throughout.
